The values that follow come from patent US20110039762A1, “TARGETED ANTIMICROBIAL MOIETIES” (C3 JIAN, INC., priority 2009, published 2011).

Entries after “also recorded” stand apart in the source; their conditions may differ.

One test deals with MRSA. The test can be described thus: Kill or inhibit growth/proliferation; morphology, biofilm and growth disruption (Tables 5, 6). Note: test concentration or dose not given here. It is filed as cell-based, Methicillin-resistant Staphylococcus aureus. Set-up: key: A: Peptide aggregates; B: Less hyphal formation; Clumps; Diffuse clumps and small polyps; F: Diffuse growth; H: Thin; I: Growth inhibition; Microcolony formation; Rippled; Small polyps; Thick; W: Halo formation on top, microlonies on bottom.

The subject of test [1] is microorganisms (e.g., bacteria, yeasts, fungi). The test can be described thus: Targeting peptide binding to target microorganisms (Table 3). To be noted: preferably 1x PBS; for Target(s) (microorganisms bound by the targeting peptide): peptide binding in aqueous buffers varied by peptide solubility.
Another test relates to microorganisms. Put plainly: Peptides having multiple activities (targeting/binding, antimicrobial, growth or phenotype altering). From the text:
In certain embodiments, peptides described herein can have multiple activities. Thus for example, a peptide can have both binding/targeting activity and antimicrobial activity. Such peptides can be used, e.g., in a chimeric construct, for any or all of these properties. Thus, for example, a peptide designated “B” in Table 8 can be used as a targeting peptide. If it is also designated G or M it can also be used for antimicrobial activity.

Another test deals with S. pneumoniae. Put plainly: Kill or inhibit growth/proliferation; morphology, biofilm and growth disruption (Tables 5, 6). Note: test concentration or dose not given here. It is filed as cell-based, Streptococcus pneumoniae. More on the design: key: A: Peptide aggregates; B: Less hyphal formation; Clumps; Diffuse clumps and small polyps; F: Diffuse growth; H: Thin; I: Growth inhibition; Microcolony formation; Rippled; Small polyps; Thick; W: Halo formation on top, microlonies on bottom.

Setting [2] is: microorganism the targeting peptide binds, binding in aqueous buffers varied by peptide solubility.
Where [3] appears, read: microorganism(s) the targeting peptide binds, peptide binding conducted in aqueous buffers varied by peptide solubility.

As to “PF-049: peptide having multiple activities (chain 1 AYYLKRREEKGK; chain 2 AYYLKRREEKGK; Peptide with targeting and/or antimicrobial activity)”, the “Organism, effect” value in the test on MRSA is reported as “MRSA (S)”. The “Target(s)” value in test [1] (setting [2]) is “S. epidermidis and MRSA and C. jeikeium and C. jejuni”. The Activities entry in the test with microorganisms is reported as “G B”.
“PF-058: peptide having multiple activities (chain 1 FADQSQDNA; chain 2 FADQSQDNA; Peptide with targeting and/or antimicrobial activity)”: the “Organism, effect” value in the test with MRSA was “MRSA (M)”. Moreover, the “Target(s)” value in test [1] (setting [2]) was “S. epidermidis and M. luteus and E. coli and C. albicans and MRSA and C. jeikeium and C. jejuni”. Besides, the Activities entry with microorganisms is listed as “G B”.
As for “PF-661 (chain 1 PDEDIRRRAILPPAGPCRPMSPE; chain 2 PDEDIRRRAILPPAGPCRPMSPE; Peptide with targeting and/or antimicrobial activity)”, the “Organism, effect (morphology, biofilm and growth disruption)” value in the test on MRSA is reported as “MRSA (R)”. Besides, the “Target(s) (microorganisms bound by the targeting peptide)” value in test [1] is given as “Mycobacteria spp”.
For the substance “PF-405: peptide having multiple activities (LVRIEVDDLEEWYERNFI; Peptide with targeting and/or antimicrobial activity)”, in the test with MRSA, the “Organism, effect” value was “MRSA (M)”. The “Target(s)” value in test [1] (setting [3]) was “S. epidermidis; also recorded: E. coli; also recorded: E. faecalis”. Moreover, the Activities result in the test on microorganisms is “G B”.
As to “PF-680 (chain 1 ADPHPTTGI; chain 2 ADPHPTTGI; Peptide with targeting and/or antimicrobial activity)”, the “Organism, effect (morphology, biofilm and growth disruption)” value in the test on MRSA is reported as “MRSA (R)”. Besides, the “Target(s) (microorganisms bound by the targeting peptide)” value in test [1] is “Mycobacteria spp”.
In the case of “PF-354: peptide having multiple activities (chain 1 FTFSKCRASNGRGFGTLWL; chain 2 FTFSKCRASNGRGFGTLWL; Peptide with targeting and/or antimicrobial activity)”, the “Organism, effect” value in the test with MRSA was “MRSA (H)”. The Activities result in the test with microorganisms was “G B”.
The matching figures for “PF-630: peptide having multiple activities (chain 1 IPATPIIHS; chain 2 IPATPIIHS; Peptide with targeting and/or antimicrobial activity)”: “MRSA (M)” and “G B”.
For the substance “PF-464: peptide having multiple activities (chain 1 VDMVNRFLGN; chain 2 VDMVNRFLGN; Peptide with targeting and/or antimicrobial activity)”, in the test with S. pneumoniae, the “Organism, effect” value is listed as “S. pneumoniae (S)”. Further, in test [1] (setting [3]), the “Target(s)” value is “S. epidermidis and C. albicans and MRSA and S. pneumoniae and E. faecalis and C. jeikeium and C. jejuni”. In the test on microorganisms, the Activities entry was “G B”.
Regarding “PF-019 (NDTNK; Peptide with targeting and/or antimicrobial activity)”, the “Organism, effect” value in the test on MRSA was “MRSA (M)”.
Take “PF-737: peptide having multiple activities (KSSGSSASASSTAGGSSSK; Peptide with targeting and/or antimicrobial activity)”: the “Organism, effect (morphology, biofilm and growth disruption)” value in the test on S. pneumoniae is reported as “S. pneumoniae (D)”. Moreover, the “Target(s) (microorganisms bound by the targeting peptide)” value in test [1] is reported as “S. epidermidis; also recorded: S. pneumoniae”. Moreover, the Activities entry in the test on microorganisms is “G B”.
Consider “PF-446: peptide having multiple activities (chain 1 SGNEKV; chain 2 SGNEKV; Peptide with targeting and/or antimicrobial activity)”, for which the “Organism, effect” value with S. pneumoniae was “S. pneumoniae (H)”. Besides, in test [1] (setting [3]), the “Target(s)” value is listed as “M. luteus; also recorded: C. jeikeium”. Further, in the test with microorganisms, the Activities result is recorded as “G B”.
“PF-424: peptide having multiple activities (IAAFVTSRAFSDTVSPI; Peptide with targeting and/or antimicrobial activity)”: the “Organism, effect” value in the test on S. pneumoniae is “S. pneumoniae (H)”. Besides, the “Target(s)” value in test [1] (setting [3]) is “S. epidermidis and C. albicans and MRSA”. Besides, the Activities entry in the test on microorganisms is “G B”.
Take “PF-416: peptide having multiple activities (SKAGLYGKIERSDKRE; Peptide with targeting and/or antimicrobial activity)”: the “Organism, effect” value with S. pneumoniae is given as “S. pneumoniae (H)”. The “Target(s)” value in test [1] (setting [3]) is reported as “S. pneumoniae; also recorded: C. jeikeium”. In addition, the Activities entry in the test with microorganisms is “G B”.
For the substance “PF-423: peptide having multiple activities (AGKKERLLSFREQFLNKNKKK; Peptide with targeting and/or antimicrobial activity)”, in the test on S. pneumoniae, the “Organism, effect” value is “S. pneumoniae (H)”. In addition, the “Target(s)” value in test [1] (setting [3]) is on record as “S. epidermidis; also recorded: M. luteus; also recorded: E. coli; also recorded: S. pneumoniae; also recorded: E. faecalis; also recorded: C. jeikeium”. In the test with microorganisms, the Activities entry is given as “G B”.
On to “PF-466: peptide having multiple activities (chain 1 VRKSDQ; chain 2 VRKSDQ; Peptide with targeting and/or antimicrobial activity)”, for which the “Organism, effect” value in the test with S. pneumoniae is listed as “S. pneumoniae (H)”. The “Target(s)” value in test [1] (setting [3]) was “MRSA and C. jeikeium and C. jejuni”. The Activities entry in the test with microorganisms is recorded as “G B”.
“PF-762: peptide having multiple activities (PAPAPSAPAPAPEQPEQPA; Peptide with targeting and/or antimicrobial activity)”: the “Organism, effect (morphology, biofilm and growth disruption)” value in the test with S. pneumoniae was “S. pneumoniae (H)”. The “Target(s) (microorganisms bound by the targeting peptide)” value in test [1] is on record as “M. luteus; also recorded: C. albicans”. The Activities result with microorganisms is on record as “G B”.
As to “PF-692 (chain 1 GVAREDPLEPDPLAPIIDDSR; chain 2 GVAREDPLEPDPLAPIIDDSR; Peptide with targeting and/or antimicrobial activity)”, the “Organism, effect (morphology, biofilm and growth disruption)” value with MRSA is “MRSA (R)”. Besides, in test [1], the “Target(s) (microorganisms bound by the targeting peptide)” value is listed as “Mycobacteria spp”.
As for “PF-445: peptide having multiple activities (chain 1 ASMTKRLKLAMSKV; chain 2 ASMTKRLKLAMSKV; Peptide with targeting and/or antimicrobial activity)”, the “Organism, effect” value with S. pneumoniae is on record as “S. pneumoniae (M)”. In addition, in test [1] (setting [3]), the “Target(s)” value is reported as “M. luteus; also recorded: S. pneumoniae; also recorded: C. jeikeium”. Also, in the test with microorganisms, the Activities entry is given as “G B”.
For the substance “PF-656 (chain 1 RGMFVPFHDVDCVQ; chain 2 RGMFVPFHDVDCVQ; Peptide with targeting and/or antimicrobial activity)”, the “Organism, effect (morphology, biofilm and growth disruption)” value in the test on MRSA was “MRSA (R)”. Besides, the “Target(s) (microorganisms bound by the targeting peptide)” value in test [1] is “Mycobacteria spp”.
In the case of “PF-144: peptide having multiple activities (RSGQPVGRPSRRAWLR; Peptide with targeting and/or antimicrobial activity)”, in the test with S. pneumoniae, the “Organism, effect” value is on record as “S. pneumoniae (H)”. In addition, the “Target(s)” value in test [1] (microorganism(s) the targeting peptide binds, binding in aqueous buffers depending on peptide solubility) is “S. epidermidis and M. luteus and E. coli and C. albicans and MRSA and S. pneumoniae and E. faecalis and C. jeikeium”. For the same substance, the Activities result in the test with microorganisms is reported as “G B”.
“PF-433: peptide having multiple activities (MRKEFHNVLSSGQLLADKRPARDYNRK; Peptide with targeting and/or antimicrobial activity)”: the “Organism, effect” value in the test with S. pneumoniae is “S. pneumoniae (H)”. Also, the “Target(s)” value in test [1] (setting [3]) is given as “S. epidermidis; also recorded: E. coli; also recorded: S. pneumoniae; also recorded: C. jeikeium”. The Activities entry in the test on microorganisms is “G B”.
For “PF-421: peptide having multiple activities (KHCFEITDKTDVV; Peptide with targeting and/or antimicrobial activity)”, in the test on S. pneumoniae, the “Organism, effect” value is reported as “S. pneumoniae (H)”. In test [1] (setting [3]), the “Target(s)” value is “C. jeikeium”. Further, in the test with microorganisms, the Activities entry is “G B”.
In the case of “PF-467: peptide having multiple activities (chain 1 YYKDYFKEI; chain 2 YYKDYFKEI; Peptide with targeting and/or antimicrobial activity)”, the “Organism, effect” value in the test with S. pneumoniae was “S. pneumoniae (H)”. For the same substance, the “Target(s)” value in test [1] (setting [3]) was “MRSA and E. faecalis and C. jeikeium and C. jejuni”. Further, the Activities entry in the test with microorganisms was “G B”.
As for “PF-744: peptide having multiple activities (LGVGTFVGKVLIKNQQKQKSKKKAQ; Peptide with targeting and/or antimicrobial activity)”, the “Organism, effect (morphology, biofilm and growth disruption)” value in the test on S. pneumoniae is recorded as “S. pneumoniae (H)”. In addition, the “Target(s) (microorganisms bound by the targeting peptide)” value in test [1] is “S. epidermidis and M. luteus and E. coli and MRSA and S. pneumoniae and E. faecalis and C. jeikeium”. In addition, the Activities result in the test with microorganisms was “G B”.
Turning to “PF-756: peptide having multiple activities (DALLRLA; Peptide with targeting and/or antimicrobial activity)”, in the test on S. pneumoniae, the “Organism, effect (morphology, biofilm and growth disruption)” value is “S. pneumoniae (A)”. Besides, in test [1], the “Target(s) (microorganisms bound by the targeting peptide)” value was “S. epidermidis and M. luteus and C. albicans and MRSA and C. jeikeium”. In addition, the Activities entry in the test on microorganisms was “G B”.
